The results in this text go back to patent publication US7622500B2, “Antiparasitic agents” (Pfizer Limited, priority 2007, dated 2009).

Some results are limits rather than exact numbers.

In the assay the test system is Haemonchus contortus L3. In words: Haemonchus contortus L3 (HcL3) in vitro test. The conditions noted are these: minimum effective dose, exsheathed L3 larvae, 37° C., observed 2 hrs to 4 days, dose responses 100-0.1 μg/ml, n=2, read-out: H.c. (L3) MED. It counts as cell-based. The protocol:
The Haemonchus contortus L3 (HcL3) test is used to measure the biological activities of the compounds claimed. The assay involves in vitro testing against H. contortus conducted according to the following general procedure.
HcL3 larvae were collected from infected sheep and, after cleaning, stored in water at 12° C. for up to one month. Viable infective larvae were exsheathed using 10% hypochlorite in Glucose Tyrodes balanced salt solution containing antibiotics and resuspended in basal medium (20 g/l bacto-tryptone, 5 g/l yeast extract, 57 g/l glucose, 0.8 g/l di-Potassium hydrogen orthophosphate, 0.8 g/l potassium dihydrogen orthophosphate and […] Hepes with antibiotics). 95 μl worm suspension was added to each well of a 96 well plate.
Test compounds were dissolved in dimethylsulfoxide to give a working stock solution of 20 mg/ml. The stock concentration was diluted 1:10 in Basal media to give 2.0 mg/ml (10% DMSO). 5 μl of the stock compound solution was added to the worm suspension to give a final concentration of 100 μg/ml. Plates were sealed with pressure sensitive film and incubated at 37° C. Observations were made 2 hrs, 24 hrs, 48 hrs, 72 hrs and 4 days post-treatment using an inverted microscope. Activity was recorded if a significant proportion of the worms were dead or adversely affected by the compound when compared to the control well containing 1% DMSO. Compounds were initially tested at 100 μg/ml, wherefrom relevant dose responses (100, 30, 10, 3, 1, 0.3, 0.1 μg/ml) were conducted in duplicate experiments to generate n=2. Data was recorded as minimum effective dose.
For `CC(C#N)(NC(=O)c1ccc(OC(F)(F)F)cc1)C1Cc2cc(C#N)ccc2O1` (centres unmarked) [Example 1a, N-[1-Cyano-1-(5-cyano-2,3-dihydro-1-benzofuran-2-yl)ethyl]-4-(trifluoromethoxy)benzamide], the minimal effective concentration was determined as 3 µg/mL.
Turning to `CC(C#N)(NC(=O)c1ccc(SC(F)(F)F)cc1)C1Cc2cccc(C#N)c2O1` (centres unmarked) [Example 7, N-[1-Cyano-1-(7-cyano-2,3-dihydro-1-benzofuran-2-yl)ethyl]-4-[(trifluoromethyl)thio]benzamide], the minimal effective concentration amounted to 10 µg/mL.
Under `CC(C#N)(NC(=O)c1ccc(OC(F)(F)F)cc1)C1Cc2ccccc2O1` (centres unmarked) [Example 3, N-[1-Cyano-1-(2,3-dihydro-1-benzofuran-2-yl)ethyl]-4-(trifluoromethoxy)benzamide] stands 30 µg/mL.
In the case of `CC(C#N)(NC(=O)c1ccc(OC(F)(F)F)cc1)C1Cc2cccc(C#N)c2O1` (centres unmarked) [Example 6, N-[1-Cyano-1-(7-cyano-2,3-dihydro-1-benzofuran-2-yl)ethyl]-4-(trifluoromethoxy)benzamide], the minimal effective concentration was 10 µg/mL.
Turning to `CC(C#N)(NC(=O)c1ccc(S(F)(F)(F)(F)F)cc1)C1Cc2cc(C#N)cc(Cl)c2O1` (centres unmarked) [Example 9, N-[1-(7-Chloro-5-cyano-2,3-dihydro-1-benzofuran-2-yl)-1-cyanoethyl]-4-(pentafluorothio)benzamide], the minimal effective concentration was less than 1 µg/mL.
`CC(C#N)(NC(=O)c1ccc(OC(F)(F)F)cc1)C1Cc2cc(C#N)cc(Cl)c2O1` (centres unmarked) [Example 8, N-[1-(7-Chloro-5-cyano-2,3-dihydro-1-benzofuran-2-yl)-1-cyanoethyl]-4-(trifluoromethoxy)benzamide]: the minimal effective concentration was less than 1 µg/mL.
As for `CC(C#N)(NC(=O)c1ccc(C(F)(F)F)cc1)C1Cc2cc(Cl)ccc2O1` (centres unmarked) [Example 5, N-[1-(5-Chloro-2,3-dihydro-1-benzofuran-2-yl)-1-cyanoethyl]-4-(trifluoromethyl)benzamide], the minimal effective concentration stood at 30 µg/mL.
As for `CC(C#N)(NC(=O)c1ccc(SC(F)(F)F)cc1)C1Cc2cc(C#N)ccc2O1` (centres unmarked) [Example 2, N-[1-Cyano-1-(5-cyano-2,3-dihydro-1-benzofuran-2-yl)ethyl]-4-[(trifluoromethyl)thio]benzamide], the minimal effective concentration came to 3 µg/mL.
